Assay results reported in ChEMBL document CHEMBL1133531, “Carbonic anhydrase inhibitors: perfluoroalkyl/aryl-substituted derivatives of aromatic/heterocyclic sulfonamides as topical intraocular pressure-lowering agents with prolonged duration of action” (J Med Chem, 2000).
pKi: −log10 of the molar value.

How the values were obtained:
[1] = target: Carbonic anhydrase 1 (Homo sapiens, UniProt P00915)
Description: Inhibition of human recombinant carbonic anhydrase I (CA1)

[2] = target: T1, Carbonic anhydrase 4 (Bos taurus, UniProt Q95323)
T1 sequence (Q95323 whole entry): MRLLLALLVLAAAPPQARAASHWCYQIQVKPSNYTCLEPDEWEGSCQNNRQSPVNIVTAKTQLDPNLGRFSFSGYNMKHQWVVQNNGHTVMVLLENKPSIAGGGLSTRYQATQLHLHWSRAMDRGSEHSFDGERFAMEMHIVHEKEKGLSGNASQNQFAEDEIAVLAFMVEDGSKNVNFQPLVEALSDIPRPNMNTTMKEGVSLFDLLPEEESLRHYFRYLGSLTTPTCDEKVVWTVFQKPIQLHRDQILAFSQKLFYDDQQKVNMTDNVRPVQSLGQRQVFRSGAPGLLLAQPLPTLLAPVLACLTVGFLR
Description: Inhibition of bovine carbonic anhydrase IV (CA4) from bovine lung microsomes

Sequence of Carbonic anhydrase 1 (P00915 whole entry): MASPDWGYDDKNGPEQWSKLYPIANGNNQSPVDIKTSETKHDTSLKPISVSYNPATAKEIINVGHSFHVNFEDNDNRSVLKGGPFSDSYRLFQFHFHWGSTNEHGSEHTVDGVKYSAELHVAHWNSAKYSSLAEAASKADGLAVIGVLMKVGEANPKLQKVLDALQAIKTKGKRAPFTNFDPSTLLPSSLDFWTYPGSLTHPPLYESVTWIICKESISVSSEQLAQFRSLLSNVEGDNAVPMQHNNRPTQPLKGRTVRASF

pKi [1] | pKi [2] | Structure (SMILES)
7.27 | 8.22 | NS(=O)(=O)c1nc2ccc(NS(=O)(=O)C(F)(F)C(F)(F)C(F)(F)C(F)(F)F)cc2s1
5.52 | 6.17 | NS(=O)(=O)c1ccc(NC(=O)C(F)(F)C(F)(F)C(F)(F)C(F)(F)C(F)(F)C(F)(F)C(F)(F)C(F)(F)F)c(I)c1
5.61 | 4.99 | NS(=O)(=O)c1ccc(NS(=O)(=O)C(F)(F)C(F)(F)C(F)(F)C(F)(F)C(F)(F)C(F)(F)C(F)(F)C(F)(F)F)c(Cl)c1
7.62 | 8.10 | NS(=O)(=O)c1nnc(NS(=O)(=O)c2ccc(NS(=O)(=O)c3c(F)c(F)c(F)c(F)c3F)cc2)s1
3.78 | 4.19 | NS(=O)(=O)c1ccc(NS(=O)(=O)C(F)(F)F)cc1
4.70 | 4.92 | NS(=O)(=O)c1ccc(CCOC(=O)C(F)(F)C(F)(F)C(F)(F)C(F)(F)C(F)(F)C(F)(F)C(F)(F)C(F)(F)F)cc1
6.05 | 7.77 | NS(=O)(=O)c1nnc(NS(=O)(=O)c2ccc(NS(=O)(=O)C(F)(F)C(F)(F)C(F)(F)C(F)(F)F)cc2)s1
5.64 | 6.22 | NS(=O)(=O)c1ccc(NC(=O)C(F)(F)C(F)(F)C(F)(F)C(F)(F)C(F)(F)C(F)(F)C(F)(F)C(F)(F)F)c(Cl)c1
5.96 | 7.60 | Cn1nc(S(N)(=O)=O)s/c1=N/S(=O)(=O)c1ccc(NS(=O)(=O)C(F)(F)C(F)(F)C(F)(F)C(F)(F)C(F)(F)C(F)(F)C(F)(F)C(F)(F)F)cc1
5.62 | 7.60 | NS(=O)(=O)c1ccc(NS(=O)(=O)c2ccc(NC(=O)C(F)(F)C(F)(F)C(F)(F)C(F)(F)C(F)(F)C(F)(F)C(F)(F)C(F)(F)F)cc2)cc1
5.97 | 6.70 | NS(=O)(=O)c1ccc(NS(=O)(=O)C(F)(F)C(F)(F)C(F)(F)C(F)(F)F)c(F)c1
5.82 | 6.01 | NS(=O)(=O)c1ccc(NNC(=O)c2c(F)c(F)c(F)c(F)c2F)cc1
6.00 | 7.48 | Cn1nc(S(N)(=O)=O)s/c1=N/S(=O)(=O)c1ccc(NS(=O)(=O)C(F)(F)F)cc1
6.05 | 7.92 | Cn1nc(S(N)(=O)=O)s/c1=N/S(=O)(=O)c1ccc(NC(=O)C(F)(F)C(F)(F)C(F)(F)C(F)(F)C(F)(F)C(F)(F)C(F)(F)C(F)(F)F)cc1
6.02 | 6.33 | NS(=O)(=O)c1ccc(CCNS(=O)(=O)C(F)(F)C(F)(F)C(F)(F)C(F)(F)C(F)(F)C(F)(F)C(F)(F)C(F)(F)F)cc1
6.54 | 7.00 | NS(=O)(=O)c1ccc(COS(=O)(=O)c2c(F)c(F)c(F)c(F)c2F)cc1
5.40 | 7.40 | NS(=O)(=O)c1ccc(NS(=O)(=O)c2ccc(NS(=O)(=O)C(F)(F)F)cc2)cc1
5.85 | 6.07 | NS(=O)(=O)c1ccc(NC(=O)C(F)(F)C(F)(F)C(F)(F)C(F)(F)C(F)(F)C(F)(F)C(F)(F)C(F)(F)F)cc1
6.40 | 7.92 | NS(=O)(=O)c1nnc(NS(=O)(=O)C(F)(F)C(F)(F)C(F)(F)C(F)(F)C(F)(F)C(F)(F)C(F)(F)C(F)(F)F)s1
4.66 | 4.91 | NS(=O)(=O)c1ccc(CCOS(=O)(=O)C(F)(F)C(F)(F)C(F)(F)C(F)(F)C(F)(F)C(F)(F)C(F)(F)C(F)(F)F)cc1
5.10 | 7.41 | NS(=O)(=O)c1ccc(Nc2ccnc(NS(=O)(=O)C(F)(F)F)n2)cc1

pKi [1] | pKi [2] | Structure (SMILES)
4.82 | 6.32 | NS(=O)(=O)c1ccc(NS(=O)(=O)C(F)(F)C(F)(F)C(F)(F)C(F)(F)F)cc1
5.85 | 6.06 | NS(=O)(=O)c1cccc(NS(=O)(=O)C(F)(F)C(F)(F)C(F)(F)C(F)(F)C(F)(F)C(F)(F)C(F)(F)C(F)(F)F)c1
3.81 | 4.22 | NS(=O)(=O)c1ccc(NNS(=O)(=O)C(F)(F)F)cc1
7.62 | 8.15 | NS(=O)(=O)c1nc2ccc(OCCOC(=O)C(F)(F)C(F)(F)C(F)(F)C(F)(F)C(F)(F)C(F)(F)C(F)(F)C(F)(F)F)cc2s1
3.74 | 4.38 | NS(=O)(=O)c1ccc(NS(=O)(=O)C(F)(F)F)c(Cl)c1
6.00 | 7.60 | NS(=O)(=O)c1nnc(NS(=O)(=O)c2ccc(NS(=O)(=O)C(F)(F)F)cc2)s1
5.74 | 5.82 | NS(=O)(=O)c1ccccc1NC(=O)C(F)(F)C(F)(F)C(F)(F)C(F)(F)C(F)(F)C(F)(F)C(F)(F)C(F)(F)F
6.42 | 7.85 | Cn1nc(S(N)(=O)=O)sc1=NS(=O)(=O)C(F)(F)C(F)(F)C(F)(F)C(F)(F)C(F)(F)C(F)(F)C(F)(F)C(F)(F)F
5.10 | 7.26 | NS(=O)(=O)c1cccc(NS(=O)(=O)c2ccc(NC(=O)c3c(F)c(F)c(F)c(F)c3F)cc2)c1
5.90 | 6.40 | NS(=O)(=O)c1ccc(CCOC(=O)c2c(F)c(F)c(F)c(F)c2F)cc1
6.52 | 6.99 | NS(=O)(=O)c1ccc(CCOS(=O)(=O)c2c(F)c(F)c(F)c(F)c2F)cc1
5.97 | 6.23 | NS(=O)(=O)c1ccc(NC(=O)c2c(F)c(F)c(F)c(F)c2F)c(Cl)c1
4.90 | 6.62 | NS(=O)(=O)c1ccc(CCNS(=O)(=O)C(F)(F)C(F)(F)C(F)(F)C(F)(F)F)cc1
5.44 | 7.51 | NS(=O)(=O)c1ccc(NS(=O)(=O)c2ccc(NS(=O)(=O)C(F)(F)C(F)(F)C(F)(F)C(F)(F)F)cc2)cc1
3.68 | 4.31 | NS(=O)(=O)c1ccc(NS(=O)(=O)C(F)(F)F)c(I)c1
6.52 | 8.05 | NS(=O)(=O)c1nnc(NC(=O)CCNS(=O)(=O)C(F)(F)C(F)(F)C(F)(F)C(F)(F)C(F)(F)C(F)(F)C(F)(F)C(F)(F)F)s1
5.10 | 6.12 | NS(=O)(=O)c1cc(S(N)(=O)=O)c(NS(=O)(=O)C(F)(F)C(F)(F)C(F)(F)C(F)(F)C(F)(F)C(F)(F)C(F)(F)C(F)(F)F)c(Cl)c1Cl
5.40 | 7.44 | NS(=O)(=O)c1cccc(NS(=O)(=O)c2ccc(NS(=O)(=O)C(F)(F)C(F)(F)C(F)(F)C(F)(F)F)cc2)c1
5.85 | 6.26 | NS(=O)(=O)c1ccc(NC(=O)C(F)(F)C(F)(F)C(F)(F)C(F)(F)C(F)(F)C(F)(F)C(F)(F)C(F)(F)F)c(F)c1
5.73 | 6.06 | NS(=O)(=O)c1ccc(NC(=O)c2c(F)c(F)c(F)c(F)c2F)c(Br)c1
5.30 | 7.35 | NS(=O)(=O)c1cccc(NS(=O)(=O)c2ccc(NS(=O)(=O)C(F)(F)F)cc2)c1

pKi [1] | pKi [2] | Structure (SMILES)
7.31 | 8.15 | NS(=O)(=O)c1nc2ccc(NS(=O)(=O)C(F)(F)C(F)(F)C(F)(F)C(F)(F)C(F)(F)C(F)(F)C(F)(F)C(F)(F)F)cc2s1
5.15 | 6.08 | NS(=O)(=O)c1cc(S(N)(=O)=O)c(NC(=O)C(F)(F)C(F)(F)C(F)(F)C(F)(F)C(F)(F)C(F)(F)C(F)(F)C(F)(F)F)c(Cl)c1Cl
6.46 | 8.00 | Cn1nc(S(N)(=O)=O)sc1=NS(=O)(=O)C(F)(F)C(F)(F)C(F)(F)C(F)(F)F
5.84 | 6.27 | NS(=O)(=O)c1ccc(NS(=O)(=O)c2c(F)c(F)c(F)c(F)c2F)c(Cl)c1
6.00 | 7.62 | Cn1nc(S(N)(=O)=O)s/c1=N/S(=O)(=O)c1ccc(NS(=O)(=O)C(F)(F)C(F)(F)C(F)(F)C(F)(F)F)cc1
7.72 | 8.22 | NS(=O)(=O)c1nc2ccc(OCCOS(=O)(=O)C(F)(F)C(F)(F)C(F)(F)C(F)(F)F)cc2s1
6.52 | 7.96 | NS(=O)(=O)c1nnc(NC(=O)CCNS(=O)(=O)C(F)(F)C(F)(F)C(F)(F)C(F)(F)F)s1
4.82 | 4.96 | NS(=O)(=O)c1ccc(COC(=O)C(F)(F)C(F)(F)C(F)(F)C(F)(F)C(F)(F)C(F)(F)C(F)(F)C(F)(F)F)cc1
7.43 | 7.85 | NS(=O)(=O)c1nc2ccc(OC(=O)C(F)(F)C(F)(F)C(F)(F)C(F)(F)C(F)(F)C(F)(F)C(F)(F)C(F)(F)F)cc2s1
4.00 | 4.54 | NS(=O)(=O)c1ccc(NS(=O)(=O)C(F)(F)F)c(F)c1
7.15 | 8.10 | NS(=O)(=O)c1nc2ccc(NS(=O)(=O)C(F)(F)F)cc2s1
5.52 | 7.40 | NS(=O)(=O)c1nnc(NC(=O)CCNS(=O)(=O)C(F)(F)F)s1
4.99 | 6.06 | NS(=O)(=O)c1ccc(NS(=O)(=O)C(F)(F)C(F)(F)C(F)(F)C(F)(F)F)c(Cl)c1
5.73 | 6.08 | NS(=O)(=O)c1ccc(NNC(=O)C(F)(F)C(F)(F)C(F)(F)C(F)(F)C(F)(F)C(F)(F)C(F)(F)C(F)(F)F)cc1
6.00 | 6.12 | NS(=O)(=O)c1ccc(CNC(=O)C(F)(F)C(F)(F)C(F)(F)C(F)(F)C(F)(F)C(F)(F)C(F)(F)C(F)(F)F)cc1
4.74 | 6.23 | NS(=O)(=O)c1cccc(NS(=O)(=O)C(F)(F)C(F)(F)C(F)(F)C(F)(F)F)c1
6.26 | 6.82 | NS(=O)(=O)c1cc(S(N)(=O)=O)c(NS(=O)(=O)C(F)(F)F)cc1Cl
7.77 | 8.30 | NS(=O)(=O)c1nc2ccc(OCCOS(=O)(=O)C(F)(F)C(F)(F)C(F)(F)C(F)(F)C(F)(F)C(F)(F)C(F)(F)C(F)(F)F)cc2s1
5.76 | 6.17 | NS(=O)(=O)c1ccc(NS(=O)(=O)c2c(F)c(F)c(F)c(F)c2F)c(I)c1
5.52 | 7.54 | NS(=O)(=O)c1ccc(NS(=O)(=O)c2ccc(NS(=O)(=O)C(F)(F)C(F)(F)C(F)(F)C(F)(F)C(F)(F)C(F)(F)C(F)(F)C(F)(F)F)cc2)cc1
5.72 | 6.38 | NS(=O)(=O)c1cc(S(N)(=O)=O)c(NC(=O)c2c(F)c(F)c(F)c(F)c2F)c(Cl)c1Cl
